We go through two molecules from patent publication US20120164104A1, “Composition and Methods of Treating Viral Infections and Viral Induced Tumors” (Chimerix, Inc., priority 2009, published 2012).

The structures appear in SMILES notation. Entries after “also recorded” stand apart in the source; their conditions may differ. Like-named read-outs stand apart in the source and are kept apart here.

One series relates to JC virus. The series can be described thus: Antiviral activity against JC virus in COS-7 cells (qPCR, 5 days). The series is classed as cell-based, JCV(Mad-4). How it is done:
In order to test the ability of CMX001 to inhibit JC virus, COS-7 cells were infected with JCV(Mad-4) at an estimated TCID50 of 0.2. After 2 h incubation at 37° C., supernatants were replaced with fresh medium without or with increasing amounts of CMX001 and incubated for 5 days. JC virus was quantified by qPCR after DNA extraction.
For orientation: Real-time PCR tracks product formation cycle by cycle.

Series [1] has as its system BKV(Dunlop). The series can be described thus: Extracellular BKV load in supernatants of BKV-infected RPTECs (qPCR). In kind it is cell-based. How it is done: For FIG. 1(a), RPTEC supernatants were harvested 72 h p.i. i.e. 70 h post start of treatment with indicated CMX001 concentrations. BKV load was measured by […] and input virus subtracted. DNA load in untreated cells (1.05E+09 Geq/ml) was set as 100%.
FIG. 5 illustrates the influence of CMX001 0.31 μM on BKV extracellular BKV load. […] Supernatants from CMX001-treated and untreated BKV-infected RPTECs were harvested at indicated timepoints after infection and BKV load measured by qPCR. Data are presented as BKV load in Geq/ml.
For FIG. […] Supernatants were harvested 72 h p.i. and extracellular BKV load measured by qPCR. Data are presented in percent of untreated cells set at 100%.
Primary human renal proximal tubule epithelial cells (RPTECs), BKV(Dunlop) and all methods as previously described by Bernhoff et al (See Bernhoff et al., Cidofovir inhibits polyomavirus BK replication in human renal tubular cells downstream of viral early gene expression, Am J Transplant 8, 1413-1422 (2008).) Only one exception, quantitative PCR (qPCR) to quantify intracellular or extracellular BKV DNA load was performed with a different primer/probe set also targeting the LTag gene (See Hirsch, et al., J. Prospective study of polyomavirus type BK replication and nephropathy in renal-transplant recipients, N Engl J. Med., 347, 488-496 (2002)). Before each experiment, CMX001 was freshly dissolved to 1 mg/ml in methanol/water/ammonium hydroxide (50/50/2). It was further diluted in RPTEC growth medium.
To investigate the effect of CMX001 on BKV progeny, increasing concentrations of CMX001 were added 2 h p.i. and supernatants harvested at 72 h p.i. It was observed that CMX001 reduced the extracellular BKV load in a concentration dependent manner (See FIG. 1 a). […] With CMX001 0.31 uM an approximately 60% decrease in BKV agnoprotein expressing cells was seen. The number of cells expressing LTag was less reduced but the signal intensity was lower than in untreated cells. […] The conclusion is that CMX001 reduced the expression of early and late BKV proteins and the production of extracellular progeny but also seemed to affect the proliferation rate of RPTECs at higher concentrations.

Series [2] relates to BKV(Dunlop). The series is described as follows: Intracellular BKV load per cell in RPTECs (qPCR). In kind it is cell-based. The conditions noted are these: CMX001 0.31 μM. How it is done: FIG. 3 illustrates the influence of CMX001 0.31 μM on BKV genome replication. For Figure, CMX001-treated and untreated BKV-infected RPTECs were harvested at indicated timepoints and intracellular BKV DNA load per cell was measured by qPCR.
To investigate whether the BKV genome replication was affected by CMX001, intracellular BKV load at 24-72 h p.i. by qPCR was measured. The intracellular BKV load was normalized to the cell number using the aspartoacylase (ACY) gene as described (See Bernhoff et al., 2008; Randhawa, et al., Quantitation of DNA of polyomaviruses BK and JC in human kidneys. J Infect Dis., 192, 504-509 (2005)). Compared to untreated RPTECs, CMX001 0.31 μM reduced the intracellular BKV load by 94% at 48 h and 63% at 72 h p.i. (FIG. 3). Then, a significant inhibitory effect of CMX001 on intracellular BKV genome replication, which is the second step of the BKV lifecycle may be identified. This step is known to require LTag expression which also increases viral late gene expression by two mechanisms: 1. increasing the DNA templates for late gene transcription and 2. by activating transcription from the late promoter (Cole, C. N., Polyomavirinae: The Viruses and Their Replication. In Fields Virology, Third edn, pp. 1997-2043. Edited by B. N. Fields, D. M. Knipe & P. H. Howley. New York: Lippincott-Raven (1996).)

A further series concerns COS-7 cells. The series is described as follows: DNA replication of uninfected COS-7 cells (BrdU assay). The series is classed as cell-based. Particulars: Chlorocebus aethiops. How it is done: FIG. 14 illustrates the effect of increasing concentrations of CMX001 on replication of COS-7 cells. DNA replication was determined by BrdU incorporation. Medium with indicated CMX001 concentrations was added to COS-7 cells and absorbance measured 72 h post seeding. Absorbance for untreated cells was set as 100%. DNA synthesis was quantified by the colorimetric measurement of BrdU incorporation into DNA in proliferating cells using the ‘Cell proliferation ELISA, BrdU’ kit (Roche). COS-7 cells were seeded in 96 well plates and CMX001 was added at indicated concentrations. Absorbance at 450 nm (sample) and at 650 nm (background) was determined 2 h after addition of the substrate.
(In general: Uptake of a labelled nucleoside into DNA is a usual measure of proliferation.)

In a further series the test system is COS-7. The series is described as follows: Inspection of COS-7 by phase contrast microscopy. The series is classed as cell-based. The conditions noted are these: 7 day exposure to CMX001 0.6 μM.
Series [3] deals with BKV(Dunlop). The conditions noted are these: BKV-infected RPTECs, Bernhoff et al., 2008, cited from earlier work.
[4] abbreviates: JC polyomavirus, 120 h, JCV(Mad-4), 5 days.

Consider `CCCCCCCCCCCCCCCCOCCCOP(=O)(O)CO[C@H](CO)Cn1ccc(N)nc1=O` [CMX001], for which, in the series on JC virus (setting [4]), the EC50 (usually the midpoint of the concentration-response curve) stood at 150 nM and the 90% effect concentration (EC90) (commonly the point of the concentration-response curve where the effect stands at 90%) turned out to be 600 nM. Also, the “activity against JC virus” value with JC virus (in words) is given as “active”. Also, the IC90 in the series on BKV(Dunlop) [1] (Betapolyomavirus hominis, Epithelial cell, primary human renal proximal tubule epithelial cells (conclusion), read-out: IC90 against BK virus replication) was 310 nM. The “extracellular BKV load (timecourse)” value with BKV(Dunlop) [1] (CMX001 0.31 μM, 48 h p.i.) is listed as “only input virus could be detected; also recorded: only input was detectable”. For the same molecule, in the series on BKV(Dunlop) [1] (CMX001 0.31 μM, 72 h p.i.), the “BKV load in supernatants from treated cells” value is listed as 1.13×10^8 Geq/ml and the “BKV load in supernatants lower than in untreated cells (timecourse)” value is given as 84%. Further, the IC90 in the series with BKV(Dunlop) [1] (RPTEC, RPTECs, added 2 h p.i., harvested 72 h p.i., viral input subtracted, read-out: inhibitory concentration IC90 (extracellular BKV load)) stood at 310 nM. Moreover, the “effect of pre-treatment on BKV load 72 h p.i.” value in the series with BKV(Dunlop) [1] (RPTECs treated for 4 hours, ending 20 hours before infection) is listed as “hardly any effect; also recorded: did not inhibit BKV replication”. Further, the “reduction of viral load by pre-treatment” value in the series with BKV(Dunlop) [1] (RPTECs treated for 23 hours until one hour before infection, 72 h p.i.) was “about 50%”. In addition, the “reduction of intracellular BKV load” value in the series with BKV(Dunlop) [2] (48 h p.i.) is listed as 94%. For the same molecule, in the series on BKV(Dunlop) [2] (72 h p.i.), the “reduction of intracellular BKV load” value amounted to 63%. Besides, the concentration for half-maximal inhibition (IC50) – broadly, the point on the concentration scale where inhibition reaches its midpoint – with COS-7 cells was about 600 nM. In addition, in the series with COS-7, the “signs of impaired viability” value is on record as “did not reveal any signs of impaired viability”.

Take `Nc1ccn(C[C@@H](CO)OCP(=O)(O)O)c(=O)n1` [cidofovir]: the “concentration of CDV inhibiting BKV (IC90)” value with BKV(Dunlop) [3] is 40 µg/mL. For the same molecule, the IC90 with BKV(Dunlop) [3] (read-out: concentration of CDV inhibiting BKV (IC90)) was 127000 nM.
